Measurements taken from ChEMBL document CHEMBL1201862, “PubChem BioAssay data set” (2004).
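Step 1: Grow cells in 96-well plates. Step 2: Expose to compound for 48 hours at 5 concentrations. Step 3: Interpolate endpoints linearly; if unreached, use highest concentration. GI50 is the concentration that inhibits growth by half.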 Activity calls are given as the source filed them. Cut-off read from the data, not from the text of the source: active = GI50 up to about 1.1 µM and inactive = higher.

Columns and labels:
Test in all cases: growth of human tumour cells (NCI), 48 h
A498 = test system: A498
KM12 = test system: KM12
HOP-92 = test system: HOP-92
SW-620 = test system: SW-620
OVCAR-3 = test system: OVCAR-3
SF-268 = test system: SF-268
EKVX = test system: EKVX
Malme-3M = test system: Malme-3M
SNB-19 = test system: SNB-19
SK-MEL-5 = test system: SK-MEL-5
CAKI-1 = test system: CAKI-1
UACC-257 = test system: UACC-257
IGROV-1 = test system: IGROV-1
TK-10 = test system: TK-10
M19-MEL = test system: M19-MEL
NCI-H460 = test system: NCI-H460
SK-OV-3 = test system: SK-OV-3
HCT-15 = test system: HCT-15
SF-295 = test system: SF-295

Structure (SMILES)	GI50 (A498)	GI50 (KM12)	GI50 (HOP-92)	GI50 (SW-620)	GI50 (OVCAR-3)	GI50 (SF-268)	GI50 (EKVX)	GI50 (Malme-3M)	GI50 (SNB-19)	GI50 (SK-MEL-5)	GI50 (CAKI-1)	GI50 (UACC-257)	GI50 (IGROV-1)	GI50 (TK-10)	GI50 (M19-MEL)	GI50 (NCI-H460)	GI50 (SK-OV-3)	GI50 (HCT-15) [µM]	GI50 (SF-295)
C=CCNC(=O)/C=C\C(=O)O	> 100 µM (inactive)	> 100 µM (inactive)	> 100 µM (inactive)	> 100 µM (inactive)	> 100 µM (inactive)	> 100 µM (inactive)	> 100 µM (inactive)	> 100 µM (inactive)	> 100 µM (inactive)	> 100 µM (inactive)	> 100 µM (inactive)	> 100 µM (inactive)	> 100 µM (inactive)	> 100 µM (inactive)	> 100 µM (inactive)	> 100 µM (inactive)	> 100 µM (inactive)	> 100	> 100 µM (inactive)
O=C(O)Cc1cc(=O)oc2cc(O)c(Cl)cc12	> 100 µM (inactive)	> 100 µM (inactive)	> 100 µM (inactive)	> 100 µM (inactive)	> 100 µM (inactive)	> 100 µM (inactive)	> 100 µM (inactive)	> 100 µM (inactive)	> 100 µM (inactive)	> 100 µM (inactive)	> 100 µM (inactive)		> 100 µM (inactive)	> 100 µM (inactive)	> 100 µM (inactive)	> 100 µM (inactive)	> 100 µM (inactive)	> 100	> 100 µM (inactive)
O=C(/C=C/c1c(O)ccc2ccccc12)c1ccc2ccccc2c1	> 100 µM (inactive)	> 100 µM (inactive)	> 100 µM (inactive)	> 100 µM (inactive)	> 100 µM (inactive)	> 100 µM (inactive)	> 100 µM (inactive)	> 100 µM (inactive)	> 100 µM (inactive)		> 100 µM (inactive)	> 100 µM (inactive)	> 100 µM (inactive)	> 100 µM (inactive)	18.2 µM (inactive)	> 100 µM (inactive)	> 100 µM (inactive)	> 100	> 100 µM (inactive)
CC(=O)NC(CCCNC(=O)OCc1ccccc1)C(=O)O (stereo unspecified)	> 100 µM (inactive)	> 100 µM (inactive)	> 100 µM (inactive)	> 100 µM (inactive)	> 100 µM (inactive)	> 100 µM (inactive)	> 100 µM (inactive)	> 100 µM (inactive)	> 100 µM (inactive)	> 100 µM (inactive)	> 100 µM (inactive)	> 100 µM (inactive)	> 100 µM (inactive)	> 100 µM (inactive)	> 100 µM (inactive)	> 100 µM (inactive)	> 100 µM (inactive)	> 100	> 100 µM (inactive)
CC(=O)Nc1ccccc1-c1nc2ccccc2nc1C	> 100 µM (inactive)	> 100 µM (inactive)	> 100 µM (inactive)	> 100 µM (inactive)	> 100 µM (inactive)	> 100 µM (inactive)	> 100 µM (inactive)	> 100 µM (inactive)	> 100 µM (inactive)	> 100 µM (inactive)	> 100 µM (inactive)	> 100 µM (inactive)	> 100 µM (inactive)	> 100 µM (inactive)	> 100 µM (inactive)	> 100 µM (inactive)	> 100 µM (inactive)	> 100	> 100 µM (inactive)
CCOC(=O)CCC1(C(=O)OCC)CCCC1=O (stereo unspecified)	> 100 µM (inactive)	> 100 µM (inactive)	> 100 µM (inactive)		> 100 µM (inactive)	> 100 µM (inactive)	> 100 µM (inactive)	> 100 µM (inactive)	> 100 µM (inactive)	> 100 µM (inactive)	> 100 µM (inactive)	> 100 µM (inactive)	> 100 µM (inactive)	> 100 µM (inactive)	> 100 µM (inactive)	> 100 µM (inactive)	> 100 µM (inactive)	78.3	> 100 µM (inactive)
O=C1NC2C(=O)N(Cc3ccccc3)C(=O)C2N1 (stereo unspecified)	> 100 µM (inactive)	> 100 µM (inactive)	> 100 µM (inactive)	> 100 µM (inactive)	> 100 µM (inactive)	> 100 µM (inactive)	> 100 µM (inactive)	> 100 µM (inactive)	> 100 µM (inactive)	> 100 µM (inactive)	> 100 µM (inactive)	> 100 µM (inactive)	> 100 µM (inactive)	> 100 µM (inactive)	> 100 µM (inactive)	> 100 µM (inactive)	> 100 µM (inactive)	> 100	> 100 µM (inactive)
CCc1nc2ccccc2c(=O)n1/N=C(\N=N\c1ccc(Cl)cc1)c1ccccc1	26.7 µM (inactive)	18.2 µM (inactive)	13.9 µM (inactive)	31.3 µM (inactive)	20.7 µM (inactive)	17.3 µM (inactive)	26.1 µM (inactive)	38.6 µM (inactive)	23.4 µM (inactive)	18.4 µM (inactive)	17 µM (inactive)	13.2 µM (inactive)	34 µM (inactive)	31 µM (inactive)	41.8 µM (inactive)	27.4 µM (inactive)	23.7 µM (inactive)	39.6	25 µM (inactive)
CC1CC(C)C2OC2(C)C[C@H](C)C(=O)NC(C)C(=O)N(C)[C@H](Cc2c(Br)[nH]c3ccccc23)C(=O)N[C@@H](c2ccc(O)cc2)CC(=O)O1 (stereo partly specified)	0.522 µM (active)	0.249 µM (active)	0.352 µM (active)	< 0.0262 µM (active)	0.49 µM (active)	0.336 µM (active)	2.02 µM (inactive)	0.527 µM (active)	0.0661 µM (active)	0.0933 µM (active)	1.09 µM (active)	0.418 µM (active)	0.272 µM (active)	0.741 µM (active)	0.161 µM (active)	0.0388 µM (active)	0.433 µM (active)	39.3	1.22 µM (inactive)
CCC[S+]([O-])c1nc(COC(=O)NC)c(COC(=O)NC)n1C (stereo unspecified)	> 100 µM (inactive)	> 100 µM (inactive)	> 100 µM (inactive)	> 100 µM (inactive)	> 100 µM (inactive)	> 100 µM (inactive)	> 100 µM (inactive)	> 100 µM (inactive)	> 100 µM (inactive)	> 100 µM (inactive)	> 100 µM (inactive)	> 100 µM (inactive)	> 100 µM (inactive)		> 100 µM (inactive)	> 100 µM (inactive)	> 100 µM (inactive)	> 100	> 100 µM (inactive)
